{
  "source": "patent US6083958A",
  "about": "“Anti-HIV composition containing imidazole derivative” (Shionogi & Co., Ltd., priority 1996, dated 2000)",
  "key": {"[1]": {"test_system": "HIV-1 IIIB strain clone 3", "experiment": "Suppression of the emergence of drug resistant variants in M 8166 cells", "assay_type": "cell-based", "conditions": "for Week of emergence of resistant mutants: CDIMI 1 ng/ml, ddC 50 ng/ml at start, doubled on viral growth; for Ratio of resistance compared to parent strain: isolated resistant virus vs parent strain", "procedure": "an T cell line Molt-4 cells persistently infected with HIV-1 (IIIB strain clone 3) were cultured in RPMI-1640 medium supplemented with 10% fetal calf serum, the supernatant was filtered and stored at […], after the virus titer was determined.\nOne ml of the above medium containing 10^6 cells of M 8166 was added to each well of 12-well plates, and 100 μl of the above HIV-1 IIIB strain clone 3 was added, and incubated for 2 hours for virus infection. Cells were washed with the above medium, and 4 ml of the medium containing CDIMI or other anti-HIV compounds alone or their combination was added to each well and incubated in 5% CO2 incubator at 37° C. CDIMI was added at 1 ng/ml and ddC was added at 50 ng/ml respectively and the same concentrations of them were added for the combination. Cells were subcultured twice a week, and when viral growth was observed, the drug concentration of the anti-HIV compound was doubled. In the case that no viral growth was observed, the drug concentration was kept the same as that of the last culture.\nVirus titer was determined using viral reverse transcriptase activity as a marker by the following method.\nTo 100 μl of the reaction mixture containing 50 mM Tris-HCl, pH 8.3, 150 mM KCl, 10 mM MgCl2, 0.1% Nonidet P-40, 10 mM dithiothreitol, 5 μg/ml poly(A), 5 μg/ml (dT) 12-18, and 1 μCi [^3 H] dTTP was added 10 μl of the culture supernatant, and incubated at 37° C. for 3 hours. The reaction mixture was chilled on ice and collected by a cell harvester on a DEAE-Filtermat. The filter was washed with 5% Na2 HP04.12H2 O and H2 O, and the radioactivity incorporated in DNA was measured by an LKB Beta Plate scintillation counter to determine viral reverse transcriptase activity.\nWhen virus growth was observed, viruses were isolated and the sensitivity to each active ingredient was assayed by the usual method."}, "[2]": {"test_system": "HIV-1 (IIIB strain clone 2)", "experiment": "Synergy of anti-HIV activity, viral reverse transcriptase activity in supernatant of infected MT-4 cells (checker board)", "assay_type": "cell-based", "protocol": "Human T cell line Molt-4 cells persistently infected with HIV-1 (IIIB strain clone 2) were cultured in RPMI-1640 medium supplemented with 10% fetal calf serum, and the supernatant was filtered and stored at -80° C. after the virus titer was determined.\nThe combination of these two drugs was conducted by the checker board method using 96-well microplates. […] After 4 hours, 50 μl of the culture supernatant of the above HIV-1 IIIB strain clone 2 was added, at the same time 50 μl of CDIMI in two-fold dilution was also added, followed by incubation in 5% CO2 incubator at 37° C. for 5 days.\nVirus titers in the culture supernatant were calculated by taking viral reverse transcriptase activity as an index determined by the following method:\nTo 100 μl of a reaction mixture containing 50 mM Tris-HCl, pH 8.3, 150 mM KCl, 10 mM MgCl2, 0.1% Nonidet P-40, 10 mM dithiothreitol, 5 μg/l poly(A), 5 μg/ml (dT)12-18, and 1 μCi [^3 H]dTTP was added 10 μl of the culture supernatant, and incubated at 37° C. for 3 hours. The reaction mixture was chilled on ice and transferred by a cell harvester to a DEAE-Filtermat. The filter was washed with 5% Na2 HPO4.12H2 O and H2 O, and the radioactivity incorporated in DNA was measured by an LKB Beta Plate scintillation counter to determine viral reverse transcriptase activity.\nOn the assumption that the inhibition of the two anti-HIV compounds was additive, virus growth inhibition rate was calculated on all combinations of concentrations according to the formula (I)\nwherein Z means an additive inhibition rate, X is an inhibition rate of CDIMI and Y is an inhibition rate of the other anti-HIV compound.\nWhen the measured value is greater than the additive inhibition rate, namely, the value is more than 0 in Table 3, it is judged as having synergy. Synergy volume is designated as total sum of values more than 0 in Table 3.\nAddition to cells of saquinavir and foscarnet was done at the same time as that of CDIMI when the virus was infected. […]"}, "[3]": {"test_system": "D67N + K70R", "experiment": "microbe, parasite or virus in culture", "assay_type": "cell-based, HIV", "procedure": "(§1) The mutant clones' cDNAs were transfected to SW480 cells. The produced mutant viruses were infected to MT-4 cells in the same method as described in Experiment 1 in the presence of the drug. After 4 days, viral growth was assayed using reverse transcriptase activity as a marker."}, "[4]": {"test_system": "F227C", "experiment": "microbe, parasite or virus in culture", "assay_type": "cell-based, HIV", "conditions": "Human immunodeficiency virus 1, MT4, 96 h", "procedure": "as §1"}, "[5]": {"test_system": "L234I", "experiment": "microbe, parasite or virus in culture", "assay_type": "cell-based, HIV", "conditions": "Human immunodeficiency virus 1, MT4, 96 h", "procedure": "as §1"}, "[6]": {"test_system": "NL432 (Wild strain)", "experiment": "microbe, parasite or virus in culture", "assay_type": "cell-based, HIV", "conditions": "Human immunodeficiency virus 1, MT4, 96 h", "procedure": "as §1"}, "[7]": {"test_system": "T215Y + L234I", "experiment": "microbe, parasite or virus in culture", "assay_type": "cell-based, HIV", "procedure": "as §1"}, "[8]": {"test_system": "T215Y", "experiment": "microbe, parasite or virus in culture", "assay_type": "cell-based, HIV", "procedure": "as §1"}, "[9]": {"test_system": "V106A + F227L", "experiment": "microbe, parasite or virus in culture", "assay_type": "cell-based, HIV", "conditions": "Human immunodeficiency virus 1, MT4, 96 h", "procedure": "as §1"}, "[10]": {"test_system": "Y181C", "experiment": "microbe, parasite or virus in culture", "assay_type": "cell-based, HIV", "conditions": "Human immunodeficiency virus 1, MT4, 96 h", "procedure": "as §1"}, "[11]": {"test_system": "CDIMI resistant or AZT resistant mutant clones of HIV", "experiment": "Cross resistance of CDIMI resistant and AZT resistant mutant clones", "assay_type": "cell-based", "procedure": "as §1"}, "[12]": {"conditions": "Human immunodeficiency virus 1, MT4, 96 h"}},
  "data": [
    {"smiles": "Nc1ccn([C@H]2CC[C@@H](CO)O2)c(=O)n1", "note": "[ddC, dideoxycytidine, reference compound]", "values": [
      {"measurement": "Week of emergence of resistant mutants", "setting": "[1]", "value": 1, "unit": "weeks"},
      {"measurement": "Ratio of resistance compared to parent strain", "setting": "[1]", "value": 20, "unit": "times"}
    ]},
    {"smiles": "Cc1cn([C@H]2C[C@H](N=[N+]=[N-])[C@@H](CO)O2)c(=O)[nH]c1=O", "note": "[AZT, azidodeoxythymidine, reference compound]", "values": [
      {"measurement": "inhibition at 0.0008 µg/mL", "setting": "[2]; Human immunodeficiency virus 1, IIIB, MT4, read-out: inhibition rate Y of the other anti-HIV compound", "value": 43.4, "unit": "%"}
    ]},
    {"smiles": "CC(C)c1nc(COC(N)=O)n(Cc2ccncc2)c1Sc1cc(Cl)cc(Cl)c1", "note": "[CDIMI, 2-carbamoyloxymethyl-5-(3,5-dichlorophenylthio)-4-iropropyl-1-(pyridin-4-yl) methyl-1H-imidazole]", "values": [
      {"measurement": "inhibition at 0.005 µg/mL", "setting": "[2]; Human immunodeficiency virus 1, IIIB, MT4, read-out: inhibition rate X of CDIMI", "value": 99.6, "unit": "%"},
      {"measurement": "reverse transcriptase inhibition rate (%)", "setting": "[2]; ddI 0 ng/ml (Table 4), lines in order CDIMI 5, 2.5, 1.25, 0.625, 0.313, 0.16, 0.08 ng/ml, 7200 min", "value": 99.01, "unit": "%"},
      {"measurement": "Week of emergence of resistant mutants", "setting": "[1]", "value": 4, "unit": "weeks"},
      {"measurement": "Ratio of resistance compared to parent strain", "setting": "[1]", "value": 10, "unit": "times"},
      {"measurement": "sensitivity of strain", "setting": "[3]; D67N plus K70R", "value": "equivalent to that of the wild strain"},
      {"measurement": "EC50", "setting": "[3]; [12]", "value": 0.31, "unit": "ng/mL"},
      {"measurement": "EC90", "setting": "[3]; [12]", "value": 1, "unit": "ng/mL"},
      {"measurement": "EC50", "setting": "[4]", "value": 2.4, "unit": "ng/mL"},
      {"measurement": "EC90", "setting": "[4]", "value": 9.8, "unit": "ng/mL"},
      {"measurement": "EC50", "setting": "[5]", "value": 6.8, "unit": "ng/mL"},
      {"measurement": "EC90", "setting": "[5]", "value": 14, "unit": "ng/mL"},
      {"measurement": "EC50", "setting": "[6]", "value": 0.31, "unit": "ng/mL"},
      {"measurement": "EC90", "setting": "[6]", "value": 1.1, "unit": "ng/mL"},
      {"measurement": "EC50", "setting": "[7]; [12]", "value": 0.69, "unit": "ng/mL"},
      {"measurement": "EC90", "setting": "[7]; [12]", "value": 2.7, "unit": "ng/mL"},
      {"measurement": "sensitivity of strain", "setting": "[7]; T215Y plus L234I", "value": "sensitive to CDIMI and AZT at the same level as the wild strain's"},
      {"measurement": "EC50", "setting": "[8]; [12]", "value": 0.17, "unit": "ng/mL"},
      {"measurement": "EC90", "setting": "[8]; [12]", "value": 0.4, "unit": "ng/mL"},
      {"measurement": "sensitivity of strain", "setting": "[8]; T215Y", "value": "equivalent to that of the wild strain"},
      {"measurement": "EC50", "setting": "[9]", "value": 117, "unit": "ng/mL"},
      {"measurement": "EC90", "setting": "[9]", "value": 310, "unit": "ng/mL"},
      {"measurement": "EC50", "setting": "[10]", "value": 4.2, "unit": "ng/mL"},
      {"measurement": "EC90", "setting": "[10]", "value": 18, "unit": "ng/mL"},
      {"measurement": "cross resistance", "setting": "[11]", "value": "do not show cross resistance"}
    ]}
  ]
}
